Article PMC10033419, “Blocking NS3–NS4B interaction inhibits dengue virus in non-human primates” (Nature, 2023)
Values joined by “and” are separate entries in the source; they are usually repeats but may differ in a detail not shown here. Identical values can stand only once. Like-named read-outs stand apart in the source and are kept apart here.

Test system: DENV-2 RL
Assay: microbe, parasite or virus in culture
Type: cell-based
Conditions: Dengue virus, DENV2, Vero

SMILES: COc1cc(N[C@H](C(=O)c2c[nH]c3ccc(OC(F)(F)F)cc23)c2ccc(Cl)cc2OC)cc(S(C)(=O)=O)c1 [JNJ-1802]
- EC50 (read-out: EC50 values Ave, B sample, passage 8): 0.126 nM
- EC50 (read-out: EC50 values Ave, B sample, passage 9): 0.126 nM
- EC50 (read-out: EC50 values Ave, B sample, passage 10): 0.126 nM
- EC50 (read-out: EC50 values Ave, B sample, passage 11): 0.000146 µg/mL and 0.251 nM
- EC50 (read-out: EC50 values Ave, B sample, passage 12): 0.000146 µg/mL and 0.251 nM
- EC50 (read-out: EC50 values Ave, B sample, passage 13): 0.000293 µg/mL and 0.503 nM
- EC50 (read-out: EC50 values Ave, B sample, passage 14): 0.126 nM
- EC50 (read-out: EC50 values Ave, B sample, passage 15): 0.126 nM
- EC50 (read-out: EC50 values Ave, B sample, passage 16): 0.000146 µg/mL and 0.251 nM
- EC50 (read-out: EC50 values Ave, B sample, passage 17): 0.000146 µg/mL and 0.251 nM
- EC50 (read-out: EC50 values Ave, B sample, passage 18): 0.000146 µg/mL and 0.251 nM
- EC50 (read-out: EC50 values Ave, B sample, passage 19): 0.000293 µg/mL and 0.503 nM
- EC50 (read-out: EC50 values Ave, B sample, passage 20): 0.000293 µg/mL and 0.503 nM
- EC50 (read-out: EC50 values Ave, B sample, passage 21): 0.000293 µg/mL and 0.503 nM
- EC50 (read-out: EC50 values Ave, B sample, passage 22): 0.000293 µg/mL and 0.503 nM
- EC50 (read-out: EC50 values Ave, B sample, passage 23): 1.01 nM
- EC50 (read-out: EC50 values Ave, B sample, passage 24): 0.00117 µg/mL and 2.01 nM
- EC50 (read-out: EC50 values Ave, B sample, passage 25): 0.00234 µg/mL and 4.02 nM
- EC50 (read-out: EC50 values Ave, B sample, passage 26): 0.00469 µg/mL and 8.04 nM
- EC50 (read-out: EC50 values Ave, B sample, passage 27): 0.00469 µg/mL and 8.04 nM
- EC50 (read-out: EC50 values Ave, B sample, passage 28): 0.00469 µg/mL and 8.04 nM
- EC50 (read-out: EC50 values Ave, B sample, passage 31): 0.0234 µg/mL and 40.2 nM
- EC50 (read-out: EC50 values Ave, B sample, passage 32): 0.0234 µg/mL and 40.2 nM
- EC50 (read-out: EC50 values Ave, B sample, passage 33): 0.0469 µg/mL and 80.4 nM
- EC50 (read-out: EC50 values Ave, B sample, passage 34): 0.0469 µg/mL and 80.4 nM
- EC50 (read-out: EC50 values Ave, B sample, passage 35): 0.0469 µg/mL and 80.4 nM
- EC50 (read-out: EC50 values Ave, B sample, passage 36): 0.0469 µg/mL and 80.4 nM
- EC50 (read-out: EC50 values Ave, B sample, passage 37): 0.0469 µg/mL and 80.4 nM
- EC50 (read-out: EC50 values Ave, B sample, passage 38): 0.0469 µg/mL and 80.4 nM
- EC50 (read-out: EC50 values Ave, B sample, passage 39): 0.0938 µg/mL and 161 nM
- EC50 (read-out: EC50 values Ave, B sample, passage 40): 322 nM
- EC50 (read-out: EC50 values Ave, B sample, passage 41): 0.375 µg/mL and 643 nM
- EC50 (read-out: EC50 values Ave, B sample, passage 42): 0.375 µg/mL and 643 nM
- EC50 (read-out: EC50 values Ave, B sample, passage 43): 0.375 µg/mL and 643 nM
- EC50 (read-out: EC50 values Ave, B sample, passage 44): 0.375 µg/mL and 643 nM
- EC50 (read-out: EC50 values Ave, B sample, passage 45): 0.375 µg/mL and 643 nM
- EC50 (read-out: EC50 values Ave, B sample, passage 46): 0.375 µg/mL and 643 nM
- EC50 (read-out: EC50 values Ave, B sample, passage 47): 0.375 µg/mL and 643 nM
- EC50 (read-out: EC50 values Ave, B sample, passage 48): 1290 nM
- EC50 (read-out: EC50 values Ave, B sample, passage 49): 1290 nM
- EC50 (read-out: EC50 values Ave, B sample, passage 50 (END)): 1290 nM
- EC50 (read-out: EC50 values [Well 1], A sample, passage 1): 0.049 ng/mL
- EC50 (read-out: EC50 values [Well 1], A sample, passage 2): 0.049 ng/mL
- EC50 (read-out: EC50 values [Well 1], A sample, passage 3): 0.049 ng/mL
- EC50 (read-out: EC50 values [Well 1], A sample, passage 4): 0.049 ng/mL
- EC50 (read-out: EC50 values [Well 1], A sample, passage 5): 0.049 ng/mL
- EC50 (read-out: EC50 values [Well 1], A sample, passage 7): 0.049 ng/mL
- EC50 (read-out: EC50 values [Well 1], A sample, passage 8): 0.049 ng/mL
- EC50 (read-out: EC50 values [Well 1], A sample, passage 10): 0.195 ng/mL
- EC50 (read-out: EC50 values [Well 1], A sample, passage 11): 0.195 ng/mL
- EC50 (read-out: EC50 values [Well 1], A sample, passage 12): 0.195 ng/mL
- EC50 (read-out: EC50 values [Well 1], A sample, passage 13): 0.391 ng/mL
- EC50 (read-out: EC50 values [Well 1], A sample, passage 16): 1.56 ng/mL
- EC50 (read-out: EC50 values [Well 1], A sample, passage 17): 3.13 ng/mL
- EC50 (read-out: EC50 values [Well 1], A sample, passage 18): 6.25 ng/mL
- EC50 (read-out: EC50 values [Well 1], A sample, passage 20): 25 ng/mL
- EC50 (read-out: EC50 values [Well 1], A sample, passage 21): 25 ng/mL
- EC50 (read-out: EC50 values [Well 1], A sample, passage 22): 25 ng/mL
- EC50 (read-out: EC50 values [Well 1], A sample, passage 23): 25 ng/mL
- EC50 (read-out: EC50 values [Well 1], A sample, passage 24): 50 ng/mL
- EC50 (read-out: EC50 values [Well 1], A sample, passage 25): 50 ng/mL
- EC50 (read-out: EC50 values [Well 1], A sample, passage 26): 100 ng/mL
- EC50 (read-out: EC50 values [Well 1], A sample, passage 27): 200 ng/mL
- EC50 (read-out: EC50 values [Well 1], A sample, passage 28): 200 ng/mL
- EC50 (read-out: EC50 values [Well 1], A sample, passage 29): 200 ng/mL
- EC50 (read-out: EC50 values [Well 1], A sample, passage 30): 200 ng/mL
- EC50 (read-out: EC50 values [Well 1], A sample, passage 31): 100 ng/mL
